molecular target: T1, HIV-integrase (Human immunodeficiency virus type 1 group M subtype B, UniProt P12497); test: HIV-Integrase Inhibition Activity (SPA bead strand-transfer assay); type: biochemical; settings: Table 1; read-out: Activity (HIV-integrase inhibition, IC50 class)
T1 construct: Recombinant integrase (0.26 ng) was incubated with the beads
Method in brief: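 Biotin-labelled substrate DNA (5 pmole) bound to streptavidin SPA beads, preloaded with recombinant integrase (0.26 ng) for 90 min at 37° C, then washed. Inhibitors and 0.1 fmol P33-labelled target DNA added; reaction stopped with 10 mM EDTA. Integration read as scintillation CPM.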

| Structure (SMILES) | IC50 [nM] |
| --- | --- |
| CC1(C)OCCn2c1nc(C(=O)NCc1ccccc1C1=CCCC1)c(O)c2=O [Example 200, Pyrimido[2,1-c][1,4]oxazine-2-carboxamide, N-[[2-(1-cyclopenten-1-yl)phenyl]methyl]-4,6,7,9-tetrahydro-3-hydroxy-9,9-dimethyl-4-oxo-] | 2 to 100 |
| CC1(C)OCCn2c1nc(C(=O)NCc1ccccc1N)c(O)c2=O [Example 255, Pyrimido[2,1-c][1,4]oxazine-2-carboxamide, N-[(2-aminophenyl)methyl]-4,6,7,9-tetrahydro-3-hydroxy-9,9-dimethyl-4-oxo-] | 2 to 100 |
| Cc1ccc(CNC(=O)c2nc3n(c(=O)c2O)CCOC3C)cc1C (stereo not shown) [Example 8, Pyrimido[2,1-c][1,4]oxazine-2-carboxamide, N-[(3,4-dimethylphenyl)methyl]-4,6,7,9-tetrahydro-3-hydroxy-9-methyl-4-oxo-] | 2 to 100 |
| Cc1ccc(F)c(CNC(=O)c2nc3n(c(=O)c2O)CCOC3(C)C)c1Cl [Example 278, Pyrimido[2,1-c][1,4]oxazine-2-carboxamide, N-[(2-chloro-6-fluoro-3-methylphenyl)methyl]-4,6,7,9-tetrahydro-3-hydroxy-9,9-dimethyl-4-oxo-] | 2 to 100 |
| COc1ccccc1CNC(=O)c1nc2n(c(=O)c1O)CCOC2(C)C [Example 242, Pyrimido[2,1-c][1,4]oxazine-2-carboxamide, 4,6,7,9-tetrahydro-3-hydroxy-N-[(2-methoxyphenyl)methyl]-9,9-dimethyl-4-oxo-] | 2 to 100 |
| COc1ccc(CNC(=O)c2nc3n(c(=O)c2O)CCOC3(C)C)cc1Cl [Example 239, Pyrimido[2,1-c][1,4]oxazine-2-carboxamide, N-[(3-chloro-4-methoxyphenyl)methyl]-4,6,7,9-tetrahydro-3-hydroxy-9,9-dimethyl-4-oxo-] | 2 to 100 |
| CC1(C)OCCCn2c1nc(C(=O)NCc1ccc(F)cc1S(C)(=O)=O)c(O)c2=O [Example 202, 6H-Pyrimido[2,1-c][1,4]oxazepine-2-carboxamide, N-[[4-fluoro-2-(methylsulfonyl)phenyl]methyl]-4,7,8,10-tetrahydro-3-hydroxy-10,10-dimethyl-4-oxo-] | 2 to 100 |
| CCC1OCCn2c1nc(C(=O)NCc1ccc(F)c(Cl)c1)c(O)c2=O (stereo not shown) [Example 14, Pyrimido[2,1-c][1,4]oxazine-2-carboxamide, N-[(3-chloro-4-fluorophenyl)methyl]-9-ethyl-4,6,7,9-tetrahydro-3-hydroxy-4-oxo-] | 2 to 100 |
| CC1(C)OCCn2c1nc(C(=O)NCc1ccc(F)cc1N)c(O)c2=O [Example 134, Pyrimido[2,1-c][1,4]oxazine-2-carboxamide, N-[(2-amino-4-fluorophenyl)methyl]-4,6,7,9-tetrahydro-3-hydroxy-9,9-dimethyl-4-oxo-] | 2 to 100 |
| CC1(C)OCCn2c1nc(C(=O)NCc1ccccc1-c1ccccc1)c(O)c2=O [Example 160, Pyrimido [2,1-c][1,4]oxazine-2-carboxamide, N-([1,1′-biphenyl]-2-ylmethyl)-4,6,7,9-tetrahydro-3-hydroxy-9,9-dimethyl-4-oxo-] | 2 to 100 |
| CC1(C)OCCn2c1nc(C(=O)NCc1ccccc1-c1ccoc1)c(O)c2=O [Example 198, Pyrimido[2,1-c][1,4]oxazine-2-carboxamide, N-[[2-(3-furanyl)phenyl]methyl]-4,6,7,9-tetrahydro-3-hydroxy-9,9-dimethyl-4-oxo-] | 2 to 100 |
| CC1(C)OCCn2c1nc(C(=O)NCc1ccccc1N1CCCCS1(=O)=O)c(O)c2=O [Example 215, Pyrimido[2,1-c][1,4]oxazine-2-carboxamide, 4,6,7,9-tetrahydro-3-hydroxy-9,9-dimethyl-4-oxo-N-[[2-(tetrahydro-1,1-dioxido-2H-1,2-thiazin-2-yl)phenyl]methyl]-] | 2 to 100 |
| CC1(C)OCCn2c1nc(C(=O)NCc1ccc(F)cc1OCC(=O)N1CCOCC1)c(O)c2=O [Example 46, Pyrimido[2,1-c][1,4]oxazine-2-carboxamide, N-[[4-fluoro-2-[2-(4-morpholinyl)-2-oxoethoxy]phenyl]methyl]-4,6,7,9-tetrahydro-3-hydroxy-9,9-dimethyl-4-oxo-] | 2 to 100 |
| CC1(C)OCCn2c1nc(C(=O)NCc1ccc(F)cc1-n1cnc(C(=O)O)n1)c(O)c2=O [Example 61, 1H-1,2,4-Triazole-3-carboxylic acid, 1-[5-fluoro-2-[[[(4,6,7,9-tetrahydro-3-hydroxy-9,9-dimethyl-4-oxopyrimido[2,1-c][1,4]oxazin-2-yl)carbonyl]amino]methyl]phenyl]-] | 2 to 100 |
| CC1(C)OCCn2c1nc(C(=O)NCc1ccccc1O)c(O)c2=O [Example 258, Pyrimido[2,1-c][1,4]oxazine-2-carboxamide, 4,6,7,9-tetrahydro-3-hydroxy-N-[(2-hydroxyphenyl)methyl]-9,9-dimethyl-4-oxo-] | 2 to 100 |
| CC1(C)OCCn2c1nc(C(=O)NCc1ccc(F)cc1I)c(O)c2=O [Example 73, Pyrimido[2,1-c][1,4]oxazine-2-carboxamide, N-[(4-fluoro-2-iodophenyl)methyl]-4,6,7,9-tetrahydro-3-hydroxy-9,9-dimethyl-4-oxo-] | 2 to 100 |

| Structure (SMILES) | IC50 [nM] |
| --- | --- |
| CC1(C)OCCCn2c1nc(C(=O)NCc1ccc(F)cc1-n1cncn1)c(O)c2=O [Example 117, 6H-Pyrimido[2,1-c][1,4]oxazepine-2-carboxamide, N-[[4-fluoro-2-(1H-1,2,4-triazol-1-yl)phenyl]methyl]-4,7,8,10-tetrahydro-3-hydroxy-10,10-dimethyl-4-oxo-] | 2 to 100 |
| CN(C)C(=O)c1ccc(-c2ccccc2CNC(=O)c2nc3n(c(=O)c2O)CCOC3(C)C)cc1 [Example 170, Pyrimido[2,1-c][1,4]oxazine-2-carboxamide, N-[[4′-[(dimethylamino)carbonyl][1,1′-biphenyl]-2-yl]methyl]-4,6,7,9-tetrahydro-3-hydroxy-9,9-dimethyl-4-oxo-] | 2 to 100 |
| COc1ncc(-c2ccccc2CNC(=O)c2nc3n(c(=O)c2O)CCOC3(C)C)c(OC)n1 [Example 149, Pyrimido[2,1-c][1,4]oxazine-2-carboxamide, N-[[2-(2,4-dimethoxy-5-pyrimidinyl)phenyl]methyl]-4,6,7,9-tetrahydro-3-hydroxy-9,9-dimethyl-4-oxo-] | 2 to 100 |
| CN(C)Cc1ccc(-c2ccccc2CNC(=O)c2nc3n(c(=O)c2O)CCOC3(C)C)cc1 [Example 178, Pyrimido[2,1-c][1,4]oxazine-2-carboxamide, N-[[4′-[(dimethylamino)methyl][1,1′-biphenyl]-2-yl]methyl]-4,6,7,9-tetrahydro-3-hydroxy-9,9-dimethyl-4-oxo-] | 2 to 100 |
| CC1(C)OCCn2c1nc(C(=O)NCc1ccccc1-c1cccc(O)c1)c(O)c2=O [Example 165, Pyrimido[2,1-c][1,4]oxazine-2-carboxamide, 4,6,7,9-tetrahydro-3-hydroxy-N-[(3′-hydroxy[1,1′-biphenyl]-2-yl)methyl]-9,9-dimethyl-4-oxo-] | 2 to 100 |
| Cc1cc(F)ccc1CNC(=O)c1nc2n(c(=O)c1O)CCOC2(C)C [Example 39, Pyrimido[2,1-c][1,4]oxazine-2-carboxamide, N-[(4-fluoro-2-methylphenyl)methyl]-4,6,7,9-tetrahydro-3-hydroxy-9,9-dimethyl-4-oxo-] | 2 to 100 |
| CC1(C)OCCn2c1nc(C(=O)NCc1ccccc1N1CCC1=O)c(O)c2=O [Example 123, Pyrimido[2,1-c][1, 4]oxazine-2-carboxamide, 4,6,7,9-tetrahydro-3-hydroxy-9,9-dimethyl-4-oxo-N-[[2-(2-oxo-1-azetidinyl)phenyl]methyl]-] | 2 to 100 |
| CC1(C)OCCn2c1nc(C(=O)NCc1ccc(C#N)cc1)c(O)c2=O [Example 265, Pyrimido[2,1-c][1,4]oxazine-2-carboxamide, N-[(4-cyanophenyl)methyl]-4,6,7,9-tetrahydro-3-hydroxy-9,9-dimethyl-4-oxo-] | 2 to 100 |
| CC1(C)OCCn2c1nc(C(=O)NCc1ccc(F)cc1N1CCCC1=O)c(O)c2=O [Example 124, Pyrimido[2,1-c][1,4]oxazine-2-carboxamide, N-[[4-fluoro-2-(2-oxo-1-pyrrolidinyl)phenyl]methyl]-4,6,7,9-tetrahydro-3-hydroxy-9,9-dimethyl-4-oxo] | 2 to 100 |
| Cc1cccc(CNC(=O)c2nc3n(c(=O)c2O)CCOC3(C)C)c1C [Example 233, Pyrimido[2,1-c][1,4]oxazine-2-carboxamide, N-[(2,3-dimethylphenyl)methyl]-4,6,7,9-tetrahydro-3-hydroxy-9,9-dimethyl-4-oxo-] | 2 to 100 |
| CCC1OCCn2c1nc(C(=O)NCc1ccc(Cl)c(Cl)c1)c(O)c2=O (stereo not shown) [Example 12, Pyrimido[2,1-c][1,4]oxazine-2-carboxamide, N-[(3,4-dichlorophenyl)methyl]-9-ethyl-4,6,7,9-tetrahydro-3-hydroxy-4-oxo-] | 2 to 100 |
| COC(=O)c1cc(F)ccc1CNC(=O)c1nc2n(c(=O)c1O)CCOC2(C)C [Example 47, Benzoic acid, 5-fluoro-2-[[[(4,6,7,9-tetrahydro-3-hydroxy-9,9-dimethyl-4-oxopyrimido[2,1-c][1,4]oxazin-2-yl)carbonyl]amino]methyl]-, methyl ester] | 2 to 100 |
| CC1(C)OCCn2c1nc(C(=O)NCc1ccc(F)cc1O)c(O)c2=O [Example 95, Pyrimido[2,1-c][1,4]oxazine-2-carboxamide, N-[(4-fluoro-2-hydroxyphenyl)methyl]-4,6,7,9-tetrahydro-3-hydroxy-9,9-dimethyl-4-oxo-] | 2 to 100 |
| CC1(C)OCCn2c1nc(C(=O)NCc1ccccc1S(C)(=O)=O)c(O)c2=O [Example 114, Pyrimido[2,1-c][1,4]oxazine-2-carboxamide, 4,6,7,9-tetrahydro-3-hydroxy-9,9-dimethyl-N-[[2-(methylsulfonyl)phenyl]methyl]-4-oxo-] | 2 to 100 |
| CC1(C)OCCn2c1nc(C(=O)NCc1ccc(F)c(C(F)(F)F)c1)c(O)c2=O [Example 241, Pyrimido[2,1-c][1,4]oxazine-2-carboxamide, N-[[4-fluoro-3-(trifluoromethyl)phenyl]methyl]-4,6,7,9-tetrahydro-3-hydroxy-9,9-dimethyl-4-oxo-] | 2 to 100 |

Source: patent US7491819B1 (priority 2004, dated 2009)
